In paper PMC7368294 (Proceedings of the National Academy of Sciences of the …, 2020):
Read-outs that look alike come from different tables or passages of the source.

Experiments:
[1] = target: T1, Amα1/Amα2/Amα8/Amβ1 nAChR (Apis mellifera, UniProt A0A7M7MMZ9+A0A8U0WQ70+A0A8U0WQC0+A0A8U0WQD1); test: two-electrode voltage clamp of Xenopus oocytes, agonist concentration-response; format: cell-based
Dα1/Dα2/Dβ1/Dβ2 nAChR = Dα1/Dα2/Dβ1/Dβ2 nAChR (Drosophila melanogaster, UniProt P04755+P09478+P17644+P25162); test: cell-based; set-up: species or system Xenopus laevis oocytes; conditions: Oocyte
Dα1/Dα2/Dβ1 nAChR = target: T2, Dα1/Dα2/Dβ1 nAChR (Drosophila melanogaster, UniProt P04755+P09478+P17644); test: cell-based; set-up: species or system Xenopus laevis oocytes; conditions: Oocyte
T2 sequence (P09478 22-567): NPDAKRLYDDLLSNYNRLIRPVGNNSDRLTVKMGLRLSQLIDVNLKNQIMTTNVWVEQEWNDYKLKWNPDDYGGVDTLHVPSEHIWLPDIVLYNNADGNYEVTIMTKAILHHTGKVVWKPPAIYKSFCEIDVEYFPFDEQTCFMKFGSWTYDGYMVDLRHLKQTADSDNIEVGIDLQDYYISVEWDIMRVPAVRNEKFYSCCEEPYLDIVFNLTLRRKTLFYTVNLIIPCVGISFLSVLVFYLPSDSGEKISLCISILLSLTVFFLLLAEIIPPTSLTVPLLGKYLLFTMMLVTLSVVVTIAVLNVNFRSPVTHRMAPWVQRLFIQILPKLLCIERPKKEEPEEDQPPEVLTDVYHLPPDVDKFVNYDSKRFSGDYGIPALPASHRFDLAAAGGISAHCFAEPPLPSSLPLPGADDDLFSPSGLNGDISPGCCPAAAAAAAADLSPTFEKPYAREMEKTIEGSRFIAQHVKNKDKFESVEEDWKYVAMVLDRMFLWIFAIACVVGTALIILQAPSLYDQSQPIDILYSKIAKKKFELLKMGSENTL
T2 sequence (P17644 22-576): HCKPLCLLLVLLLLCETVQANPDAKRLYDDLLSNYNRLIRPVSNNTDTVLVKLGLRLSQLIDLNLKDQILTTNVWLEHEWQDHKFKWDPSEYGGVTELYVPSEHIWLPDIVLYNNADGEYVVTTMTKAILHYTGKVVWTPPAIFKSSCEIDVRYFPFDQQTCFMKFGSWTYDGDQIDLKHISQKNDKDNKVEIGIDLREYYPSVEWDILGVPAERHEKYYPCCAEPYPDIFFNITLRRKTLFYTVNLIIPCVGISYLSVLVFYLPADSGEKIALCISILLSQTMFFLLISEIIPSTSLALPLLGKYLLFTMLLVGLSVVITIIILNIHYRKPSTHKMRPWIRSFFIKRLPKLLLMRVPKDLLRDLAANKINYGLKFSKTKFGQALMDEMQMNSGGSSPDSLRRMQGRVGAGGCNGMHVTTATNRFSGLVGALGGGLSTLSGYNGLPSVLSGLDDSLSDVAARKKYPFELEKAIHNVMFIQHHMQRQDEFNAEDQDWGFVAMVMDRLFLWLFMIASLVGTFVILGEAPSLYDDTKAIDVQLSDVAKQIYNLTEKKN
T2 sequence (P04755 25-521): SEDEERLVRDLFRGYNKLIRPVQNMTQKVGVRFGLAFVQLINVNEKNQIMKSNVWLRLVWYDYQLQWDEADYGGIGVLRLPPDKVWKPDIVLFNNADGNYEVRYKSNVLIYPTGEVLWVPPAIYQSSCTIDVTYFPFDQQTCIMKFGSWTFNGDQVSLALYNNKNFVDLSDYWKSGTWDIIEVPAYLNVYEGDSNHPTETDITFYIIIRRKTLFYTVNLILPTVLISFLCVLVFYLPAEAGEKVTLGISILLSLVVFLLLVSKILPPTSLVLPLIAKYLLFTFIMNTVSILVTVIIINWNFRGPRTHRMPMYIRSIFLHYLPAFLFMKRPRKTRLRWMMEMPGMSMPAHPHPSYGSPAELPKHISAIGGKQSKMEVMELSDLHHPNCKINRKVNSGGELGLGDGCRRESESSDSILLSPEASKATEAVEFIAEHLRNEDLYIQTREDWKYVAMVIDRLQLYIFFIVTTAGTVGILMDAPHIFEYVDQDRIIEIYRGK

[2] = target: T1, Amα1/Amα2/Amα8/Amβ1 nAChR; test: cell-based; set-up: species or system Xenopus laevis oocytes; conditions: Oocyte

| SMILES | EC50 [1] [nM] | Emax (Dα1/Dα2/Dβ1/Dβ2 nAChR; read-out: Thiacloprid / Imax) [%] | Emax (Dα1/Dα2/Dβ1 nAChR; read-out: Thiacloprid / Imax) [%] | Emax ([2]; read-out: Thiacloprid / Imax) [%] | Emax (Dα1/Dα2/Dβ1/Dβ2 nAChR; read-out: Clothianidin / Imax / ND) [%] | Emax (Dα1/Dα2/Dβ1 nAChR; read-out: Clothianidin / Imax) [%] | Emax ([2]; read-out: Clothianidin / Imax) [%] | Emax (Dα1/Dα2/Dβ1/Dβ2 nAChR; read-out: Imidacloprid / Imax) [%] | Emax (Dα1/Dα2/Dβ1 nAChR; read-out: Imidacloprid / Imax) [%] | Emax ([2]; read-out: Imidacloprid / Imax) [%] |
| --- | --- | --- | --- | --- | --- | --- | --- | --- | --- | --- |
| N#C/N=C1\SCCN1Cc1ccc(Cl)nc1 [thiacloprid] | 6.92 | 45.4 ± 1.9 | 2 ± 0.2 | 3.7 ± 0.3 | – | – | – | – | – | – |
| CN/C(=N\[N+](=O)[O-])NCc1cnc(Cl)s1 [clothianidin] | 8.13 | – | – | – | 82.1 ± 1.7 | 46.7 ± 2.1 | 76.6 ± 2.4 | – | – | – |
| O=[N+]([O-])NC1=NCCN1Cc1ccc(Cl)nc1 [imidacloprid] | 33.1 | – | – | – | – | – | – | 59.2 ± 3 | 4.6 ± 0.4 | 7 ± 0.5 |
